From patent US20160022620A1, “ENCAPSULATED COMPOSITION FOR BINDING ALDEHYDES IN THE STOMACH” (BIOHIT OYJ, priority 2013, published 2016)

Assay: Dissolution test for the capsules (USP I method, pH 1.2 HCl buffer)
Assay type: physicochemical
Conditions: not granulated; in 5 minutes
Procedure: Dissolution tests were carried out on the capsules of Example 1 according to the USP I method (USP 24) (The United States Pharmacopeia 2001). A standard curve was prepared between 0.01 and 0.6 mg/ml ([…], r^2=0.9999). The medium used was 500 ml of pH 1.2 HCl buffer. The rotation rate of the baskets was 100 rpm, and the temperature of the medium was +37° C. (±0.5). Samples were taken at 5-minute intervals for the first half hour and thereafter at 10-minute intervals for the remaining 2 hours. L-cysteine was detected in flow-through cells (10 mm) at a wavelength of 213 nm. The results were calculated by using dissolution software. The system was equipped with a bath and a pump (Sotax AT7 UV Dissolution System, Stax, Allschwil, Switzerland) and a spectrophotometer (PerkinElmer, Lambda 25, PerkinElmer, Inc., Waltham, Mass.), the software used for the test and for calculating the results was WinSotax (Sotax). […] When not granulated, the L-cysteine was dissolved rapidly (100% in 5 minutes).

L-cysteine dissolved: 100%
Structure (SMILES): N[C@@H](CS)C(=O)O [L-cysteine]
